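A five-concentration, 48-hour dose response in 96-well plates underlies each endpoint, interpolated linearly between surrounding concentrations. Abbreviation: GI50, concentration required for 50% inhibition of growth.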 Active and inactive are the calls of the source. Cut-off read from the data, not from the text of the source: active = GI50 up to about 1.1 µM and inactive = higher.
Experiments:
Test in all cases: DTP human tumour cell line panel, 48 h
[1] = system: SW-620
[2] = system: HT-29
[3] = system: HCT-15
[4] = system: SK-MEL-2
[5] = system: COLO 205
[6] = system: SN12C
[7] = system: A498
[8] = system: M14
[9] = system: SK-MEL-28
[10] = system: Malme-3M
[11] = system: CAKI-1
[12] = system: SNB-19
[13] = system: SK-MEL-5
[14] = system: ACHN
[15] = system: MCF7
[16] = system: UO-31
[17] = system: HL-60
[18] = system: SF-268
[19] = system: SR
[20] = system: M19-MEL

Row | SMILES | GI50 [1] | GI50 [2] | GI50 [3] | GI50 [4] | GI50 [5] | GI50 [6] | GI50 [7] | GI50 [8] | GI50 [9] | GI50 [10] | GI50 [11] | GI50 [12] | GI50 [13] | GI50 [14] | GI50 [15] | GI50 [16] | GI50 [17] | GI50 [18] | GI50 [19] | GI50 [20]
1 | CC(=O)OCC(=O)[C@@]12OC(C)(C)O[C@@H]1C[C@H]1[C@@H]3CC=C4C[C@@H](O)CC[C@]4(C)[C@H]3CC[C@@]12C | > 100 µM (inactive) | > 100 µM (inactive) | > 100 µM | > 100 µM (inactive) | > 100 µM (inactive) | 43.9 µM (inactive) | 32.1 µM (inactive) | > 100 µM (inactive) | > 100 µM (inactive) | > 100 µM (inactive) | > 100 µM (inactive) | 39.9 µM (inactive) | > 100 µM (inactive) | 92.9 µM (inactive) | > 100 µM (inactive) | > 100 µM (inactive) | > 100 µM (inactive) | 31.6 µM (inactive) | > 100 µM (inactive) | –
2 | CC1=CC(N2C(=O)C(C)=CC2O)NC1=O (centres undefined) | > 100 µM (inactive) | > 100 µM (inactive) | – | > 100 µM (inactive) | > 100 µM (inactive) | > 100 µM (inactive) | – | > 100 µM (inactive) | > 100 µM (inactive) | 45.8 µM (inactive) | > 100 µM (inactive) | > 100 µM (inactive) | – | – | – | > 100 µM (inactive) | > 100 µM (inactive) | > 100 µM (inactive) | > 100 µM (inactive) | > 100 µM (inactive)
3 | COC(=O)C1CCc2nnc(-c3ccccc3)n21 (centres undefined) | > 100 µM (inactive) | > 100 µM (inactive) | > 100 µM | > 100 µM (inactive) | > 100 µM (inactive) | > 100 µM (inactive) | > 100 µM (inactive) | > 100 µM (inactive) | > 100 µM (inactive) | > 100 µM (inactive) | > 100 µM (inactive) | > 100 µM (inactive) | > 100 µM (inactive) | > 100 µM (inactive) | – | > 100 µM (inactive) | > 100 µM (inactive) | > 100 µM (inactive) | – | > 100 µM (inactive)
4 | CN1c2ccccc2N(C(=O)c2ccc(Cl)cc2)C(CC(=O)O)c2cccn21 (centres undefined) | > 100 µM (inactive) | > 100 µM (inactive) | > 100 µM | > 100 µM (inactive) | > 100 µM (inactive) | > 100 µM (inactive) | > 100 µM (inactive) | > 100 µM (inactive) | > 100 µM (inactive) | > 100 µM (inactive) | > 100 µM (inactive) | > 100 µM (inactive) | > 100 µM (inactive) | > 100 µM (inactive) | – | > 100 µM (inactive) | > 100 µM (inactive) | > 100 µM (inactive) | – | > 100 µM (inactive)
5 | O=c1nc(/C=C/c2ccccc2Cl)cc2n1CCN2CCO | > 100 µM (inactive) | > 100 µM (inactive) | > 100 µM | 72.3 µM (inactive) | > 100 µM (inactive) | > 100 µM (inactive) | – | > 100 µM (inactive) | > 100 µM (inactive) | > 100 µM (inactive) | > 100 µM (inactive) | < 0.01 µM (active) | – | > 100 µM (inactive) | – | > 100 µM (inactive) | > 100 µM (inactive) | 67.6 µM (inactive) | 50.1 µM (inactive) | > 100 µM (inactive)
6 | COc1nc2c(nc(N)n2C2OCC(O)C(O)C2O)c(=O)n1C (centres undefined) | > 100 µM (inactive) | > 100 µM (inactive) | – | – | > 100 µM (inactive) | > 100 µM (inactive) | > 100 µM (inactive) | > 100 µM (inactive) | > 100 µM (inactive) | > 100 µM (inactive) | > 100 µM (inactive) | > 100 µM (inactive) | > 100 µM (inactive) | > 100 µM (inactive) | – | > 100 µM (inactive) | > 100 µM (inactive) | > 100 µM (inactive) | > 100 µM (inactive) | > 100 µM (inactive)
7 | COC(=O)CCSC(=O)Nc1ccc(/N=N/c2ccccc2)cc1 | > 100 µM (inactive) | 68.5 µM (inactive) | 36.1 µM | – | 20.3 µM (inactive) | 69 µM (inactive) | 29.5 µM (inactive) | 70 µM (inactive) | > 100 µM (inactive) | > 100 µM (inactive) | 98.4 µM (inactive) | 32.1 µM (inactive) | 51.9 µM (inactive) | 29 µM (inactive) | – | 51.3 µM (inactive) | – | > 100 µM (inactive) | 30.6 µM (inactive) | 45.4 µM (inactive)
8 | CN/N=C(\C(=O)Nc1ccc(C(F)(F)F)cc1[N+](=O)[O-])C(c1cnc2ccc([N+](=O)[O-])cc2n1)[N+](=O)[O-] (centres undefined) | 46 µM (inactive) | 67.1 µM (inactive) | 37.1 µM | > 100 µM (inactive) | 28.6 µM (inactive) | > 100 µM (inactive) | 16.7 µM (inactive) | > 100 µM (inactive) | > 100 µM (inactive) | > 100 µM (inactive) | 14.3 µM (inactive) | 96.6 µM (inactive) | 28.1 µM (inactive) | 21.8 µM (inactive) | – | 16 µM (inactive) | – | 73.3 µM (inactive) | 27.7 µM (inactive) | 10.9 µM (inactive)
